Experimental data published in patent publication US6242235A, “Polymerase stabilization by polyethoxylated amine surfactants” (priority 1999, dated 2001).
Blank lines part the entries; values can stand above or below the compound they belong to.

Tests used:
[1] = target: T1, Taq polymerase (Thermus aquaticus, UniProt P19821); test: Half-life of Taq polymerase activity at 95° C. in surfactant solutions (3H-TTP incorporation); format: biochemical; settings: incubated at 95° C.; for estimated half-life of Taq polymerase: Example 2: 0.1% surfactant, control without surfactant less than 5 min; for Taq polymerase half life: Example 7: 0.005% surfactant, 2.5 U/100 μl, estimated graphically
Description: A 10× buffer was made with each of these surfactant solutions. The 10× buffer for each consisted of: 500 mM KCl, 100 mM Tris-HCl pH 9.0 (at 25° C.), 1% surfactant (made by a 1:10 dilution of the detergent solution described above into the buffer during formulation). As described in Example 1, the Taq polymerase used in these experiments was purified without exposure to any detergents. Each of these buffer solutions was used to formulate a Taq-surfactant solution as follows: […]
A control solution was made as indicated above, except that the 32 μl of 10× buffer without surfactant was used. The solutions were incubated at 95° C. and samples (10 μl) were removed and placed in a fresh tube, and kept on ice at 0, 5, 10, 30, 60, 90, and 120 min. The samples were then assayed for Taq polymerase activity.
Taq polymerase activity was determined by measuring the amount of tritiated deoxynucleotide base a sample of the enzyme could incorporate. The assay was performed as follows. Solutions of dATP, dCTP, dGTP and dTTP (Promega U120, U122, U121 and U123, respectively) were diluted to 2 mM final concentration (originally at 100 mM) using nanopure water. Tritiated nucleotide ^3 H-TTP was obtained from Amersham (TRK424, 250 μCi/250 μl). The template for incorporation was calf thymus DNA (Sigma, D-1501) dissolved in 10 mM Tris-HCl pH 7.3, 5 mM MgCl2 to a final concentration of 2.5 mg/ml. Prior to use, the DNA was treated with 1 μl of a 1:10 dilution of RQ1 DNAse (Promega M610) (dilution made using 10 mM Tris-HCl, 5 mM MgCl2) and incubated for 10 min at 37° C. followed by 30 min at 68° C. This was done to "activate" the DNA for incorporation. A 10× Taq assay buffer was made containing 500 mM Tris-HCl (pH 9.0 at 25° C.), 500 mM NaCl, and 100 mM MgCl2.
Time point samples (10 μl) were added to 40 μl of the reaction mix and then incubated at 74° C. for 10 min. After incubation, the solution was diluted with 500 μl of ice cold 10% TCA. The TCA solution was filtered through a GF/A filter. The tube was washed three times with 1 ml of 5% TCA and the wash was then filtered onto the same filter. The filter was then rinsed 3 times with 5% TCA and then rinsed with acetone. The filters were dried 10 min. with a heat lamp and then the radioactivity was counted. The percent of activity present at any time point was determined by dividing the net counts for the sample at that time point by the net counts of the 0 min sample for that enzyme solution and then multiplying by 100%. The percent activity of the solution was plotted versus time. The points were then connected by a smooth curve and the estimated half-life of the enzyme under the conditions chosen was estimated based on the point where the line crossed 50% activity.
In this example, the ability of ethoxylated amines to stabilize thermostable proteins at high temperatures was examined. Solutions of detergent-free Taq polymerase (2.5 U/100 μl of solution) containing 0.005% Tomah E-18-15, Tomah E-18-5, Tween 20, NP-40, and TRITON X-100 were produced as in Example 2. These solutions were incubated at 95° C. and samples were removed at 0, 10, 30, 60 and 120 min and analyzed as in Example 2. The half lives of the enzyme in the presence of these surfactants was estimated graphically. The solutions containing Tomah E-18-5, TRITON X-100 and NP-40 all had Taq polymerase half lives of about 8 min.

[2] = McCutcheon's Volume 1: Emulsifiers and Detergents North American Edition, 1996; cited from earlier work
[3] = target: T1, Taq polymerase; test: PCR based assay for Taq polymerase stabilization by detergents (1.5 kb amplification product on agarose gel); format: biochemical; settings: 2 μl Taq polymerase (10 U/μl)
Description: This Example describes the development of a PCR based assay for polymerase stabilization by detergents (i.e., surfactants). Conditions were defined in which the polymerase was incapable of producing a detectable amplification product in the absence of detergent, but could produce detectable amplification in the presence of a stabilizing detergent, such as Tween 20.
The following reaction mixture was assembled:
pGEM 1 uc (Part # E1541) and 25 mM MgCl2 (Part # M1902) were obtained from Promega Corp, Madison Wis. The 10× Taq buffer formulation was: 500 mM KCl, 100 mM Tris-Cl (pH 9.0 at 25° C.). The 10× Taq buffer was made by dissolving KCl and Trizma in nanopure water and adjusting the pH with concentrated hydrochloric acid. Nanopure water was made by autoclaving deionized water treated by a NANOPURE water system. The 2 mM dNTP mix was made by mixing 100 mM stocks of dATP, dCTP, dGTP, and dTTP (Promega U120, U122, U121 and U123, respectively) with nanopure water to produce a solution containing a 2 mM concentration of each nucleotide. The DNA sequences of the primers used were […] (SEQ ID NO: 1) and […] (SEQ ID NO 2).
One hundred microliters of the reaction mixture were placed into a 0.2 ml tube and 50 μl placed in five additional tubes. […]
The reaction products were analyzed by agarose gel electrophoresis. […]

T1 sequence (P19821 whole entry): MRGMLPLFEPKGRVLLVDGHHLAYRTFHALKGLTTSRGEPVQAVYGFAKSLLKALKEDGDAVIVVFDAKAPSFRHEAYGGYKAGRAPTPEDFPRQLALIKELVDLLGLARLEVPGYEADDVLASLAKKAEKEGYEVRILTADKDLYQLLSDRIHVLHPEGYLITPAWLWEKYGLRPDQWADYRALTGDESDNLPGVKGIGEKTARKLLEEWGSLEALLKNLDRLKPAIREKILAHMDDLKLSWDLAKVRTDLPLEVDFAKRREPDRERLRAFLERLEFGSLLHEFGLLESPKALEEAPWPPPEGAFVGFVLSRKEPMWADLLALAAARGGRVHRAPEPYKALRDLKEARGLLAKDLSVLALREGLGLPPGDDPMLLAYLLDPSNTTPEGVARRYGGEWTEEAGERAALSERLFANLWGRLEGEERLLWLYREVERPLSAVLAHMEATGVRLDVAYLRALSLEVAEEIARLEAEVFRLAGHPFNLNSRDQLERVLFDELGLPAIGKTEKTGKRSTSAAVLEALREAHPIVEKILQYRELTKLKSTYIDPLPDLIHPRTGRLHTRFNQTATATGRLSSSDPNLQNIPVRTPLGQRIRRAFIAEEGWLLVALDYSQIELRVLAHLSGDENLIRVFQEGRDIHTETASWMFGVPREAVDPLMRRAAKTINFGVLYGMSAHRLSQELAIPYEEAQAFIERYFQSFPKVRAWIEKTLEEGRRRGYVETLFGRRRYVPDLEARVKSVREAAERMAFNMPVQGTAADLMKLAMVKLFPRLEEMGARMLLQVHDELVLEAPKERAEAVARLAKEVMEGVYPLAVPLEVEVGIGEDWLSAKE

Compound: TRITON X-100
estimated half-life of Taq polymerase [1]: approximately 40 min
Taq polymerase half life [1]: about 8 min
HLB Index [2]: 13.5

1.5 kb DNA band ([3]; Example 3: 1 μl of 10% surfactant in 99 μl mix, weaker but visible band without surfactant): band intermediate in intensity
Compound: CCCCCCCCCC[N+](C)(C)CCCS(=O)(=O)[O-] [N-decyl-n,n-dimethyl-3-ammonium-1-propanesulfonate]
1.5 kb DNA band ([3]; Example 3, second set: 5 μl of 10% surfactant in 95 μl mix, no band without surfactant): failed to produce a visible 1.5 kb DNA fragment

Compound: ethoxylated alky phenol [NP-40]
Taq polymerase half life [1]: about 8 min

Compound: C[C@H](CCC(=O)NCCC[N+](C)(C)CCCS(=O)(=O)[O-])[C@H]1CC[C@H]2[C@@H]3[C@H](O)C[C@@H]4C[C@H](O)CC[C@]4(C)[C@H]3C[C@H](O)[C@]12C [Chaps]
estimated half-life of Taq polymerase [1]: approximately 5 min

Compound: C[C@H](CCC(=O)NCCC[N+](C)(C)CC(O)CS(=O)(=O)[O-])[C@H]1CC[C@H]2[C@@H]3[C@H](O)C[C@@H]4C[C@H](O)CC[C@]4(C)[C@H]3C[C@H](O)[C@]12C (some centres unmarked) [Chapso]
estimated half-life of Taq polymerase [1]: approximately 5 min
